In publication PMC10598797, “Molecular View on the iRGD Peptide Binding Mechanism: Implications for Integrin Activity and Selectivity Profiles” (Journal of Chemical Information and Modeling, 2023):

What was measured:
αvβ5 = biological target: T1, αvβ5 (Homo sapiens, UniProt P06756+P18084); experiment: Solid-phase integrin binding assay, αvβ5
T1 construct: purchased R&D Systems, Inc
Description: (§3) Purified αvβ3 (Sino Biological Europe GmbH) and αvβ5 (R&D Systems, Inc.) were diluted to 0.5 μg/mL, while αvβ6 (Sino Biological Europe GmbH) was diluted to 1 μg/mL in coating buffer containing Tris–HCl (20 mmol/L; pH 7.4), NaCl (150 mmol/L), MnCl2 (1 mmol/L), CaCl2 (2 mmol/L), and MgCl2 (1 mmol/L). An aliquot of diluted receptors (100 μL per well) was added to 96-well microtiter plates (Nunc MW96F Maxisorp Straight) and incubated overnight at 4 °C. The plates were then incubated with blocking solution (coating buffer plus 1% bovine serum albumin) for an additional 2 h at room temperature to block nonspecific binding, followed by 3 h incubation at room temperature with various concentrations of test compounds in the presence of, respectively, vitronectin (1 μg/mL, Sigma-Aldrich) for αvβ3 and αvβ5 and fibronectin for αvβ6 (1 μg/mL, Sigma-Aldrich) biotinylated using the EZ-Link Sulfo-NHS-Biotinylation kit (Thermo Fisher). […] Absorbance at 415 nm was read with a BMG Labtech Fluostar Optima microplate reader. All of the experiments were performed in triplicates, and the data collected were analyzed using the GraphPad 5.0 Software Package (GraphPad Prism, San Diego, CA).

αvβ6 = biological target: T2, αvβ6 (Homo sapiens, UniProt P06756+P18564); experiment: Solid-phase integrin binding assay, αvβ6; details: αvβ6 1 μg/mL coated overnight at 4 °C; biotinylated fibronectin 1 μg/mL; 3 h incubation at room temperature; pH 7.4; absorbance 415 nm; mean of three independent experiments ± SEM
T2 construct: purchased Sino Biological Europe GmbH
T2 sequence (P06756 31-992 limits assumed): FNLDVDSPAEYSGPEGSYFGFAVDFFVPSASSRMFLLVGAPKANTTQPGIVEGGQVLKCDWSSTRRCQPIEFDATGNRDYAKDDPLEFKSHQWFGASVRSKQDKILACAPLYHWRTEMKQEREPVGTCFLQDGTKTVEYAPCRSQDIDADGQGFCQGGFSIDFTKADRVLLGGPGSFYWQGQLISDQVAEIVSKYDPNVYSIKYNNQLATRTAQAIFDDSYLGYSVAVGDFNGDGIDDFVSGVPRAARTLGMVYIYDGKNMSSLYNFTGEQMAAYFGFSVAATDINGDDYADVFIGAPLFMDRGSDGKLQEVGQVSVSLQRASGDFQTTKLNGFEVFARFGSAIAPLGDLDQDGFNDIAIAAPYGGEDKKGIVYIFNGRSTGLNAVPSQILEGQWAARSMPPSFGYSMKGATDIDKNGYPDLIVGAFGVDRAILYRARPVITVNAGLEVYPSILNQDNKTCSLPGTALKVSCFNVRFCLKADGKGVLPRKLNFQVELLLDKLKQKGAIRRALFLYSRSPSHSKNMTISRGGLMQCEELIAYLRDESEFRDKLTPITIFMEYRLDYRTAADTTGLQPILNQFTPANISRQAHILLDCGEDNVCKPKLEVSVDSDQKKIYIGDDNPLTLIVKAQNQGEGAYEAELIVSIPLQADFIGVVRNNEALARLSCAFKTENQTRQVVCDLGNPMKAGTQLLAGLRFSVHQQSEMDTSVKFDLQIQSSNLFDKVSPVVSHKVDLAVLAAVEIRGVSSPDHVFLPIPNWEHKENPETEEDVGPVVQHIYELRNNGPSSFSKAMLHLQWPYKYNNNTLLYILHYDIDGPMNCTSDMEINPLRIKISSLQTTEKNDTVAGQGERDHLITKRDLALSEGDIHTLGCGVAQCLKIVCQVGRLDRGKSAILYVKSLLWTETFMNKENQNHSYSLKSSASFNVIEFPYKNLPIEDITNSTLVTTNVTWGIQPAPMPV
T2 sequence (P18564 22-707 limits assumed): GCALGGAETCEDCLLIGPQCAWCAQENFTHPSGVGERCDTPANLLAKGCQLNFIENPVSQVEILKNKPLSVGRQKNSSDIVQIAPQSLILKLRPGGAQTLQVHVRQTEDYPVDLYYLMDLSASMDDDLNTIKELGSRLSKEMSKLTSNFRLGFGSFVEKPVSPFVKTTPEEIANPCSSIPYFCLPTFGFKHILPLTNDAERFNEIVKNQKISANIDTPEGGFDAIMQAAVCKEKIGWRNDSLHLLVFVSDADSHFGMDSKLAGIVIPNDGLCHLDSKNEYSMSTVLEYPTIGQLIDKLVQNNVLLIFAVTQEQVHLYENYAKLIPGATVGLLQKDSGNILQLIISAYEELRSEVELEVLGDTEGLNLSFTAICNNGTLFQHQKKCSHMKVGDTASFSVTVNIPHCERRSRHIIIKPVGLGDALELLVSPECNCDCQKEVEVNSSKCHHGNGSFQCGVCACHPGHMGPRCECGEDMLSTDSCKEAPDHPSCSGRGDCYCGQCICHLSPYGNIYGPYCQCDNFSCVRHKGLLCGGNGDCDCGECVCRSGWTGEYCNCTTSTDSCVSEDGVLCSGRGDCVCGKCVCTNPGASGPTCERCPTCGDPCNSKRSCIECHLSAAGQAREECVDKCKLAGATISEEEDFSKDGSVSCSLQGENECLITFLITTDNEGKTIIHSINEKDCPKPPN
Description: as §3

[1] = system: metastatic pancreatic ductal adenocarcinoma (PDAC); details: phase I trial, combination with nab-paclitaxel and gemcitabine; cited from earlier work
Description: (§1) Nowadays, the clinical efficacy of chemotherapeutic drugs is frequently hampered either by a lack of selectivity over healthy cells or by poor pharmacokinetic properties, including cancer homing and penetration. This is especially true for solid tumors, which are frequently characterized by the upregulation of junction proteins such as desmoglein 2 (DSG2) and E-cadherin, and extracellular matrix (ECM) components (i.e., fibrinogen and collagen), which form a physical barrier against the intracellular transport of exogenous molecules.[1] For these reasons, anticancer compounds often need to be a ...

tumor = details: cited from earlier work
Description: as §1

[2] = cited from earlier work
Description: (§2) The striking iRGD’s tumor-homing activity is linked to the marked overexpression of RGD integrins on the cancer cell membrane.[38]−[40] […] This can be correlated to the peculiar multistage internalization process of iRGD, where the binding to integrins represents only the first step.[16]

tumor migration = details: in vitro, CendR- and NRP-1-dependent; cited from earlier work
Description: as §2

neuropilin-1 (NRP-1) = details: cited from earlier work
Description: as §2

T1 sequence (P06756 31-992 limits assumed): as the sequence (P06756 31-992 limits assumed) above
T1 sequence (P18084 24-719 limits assumed): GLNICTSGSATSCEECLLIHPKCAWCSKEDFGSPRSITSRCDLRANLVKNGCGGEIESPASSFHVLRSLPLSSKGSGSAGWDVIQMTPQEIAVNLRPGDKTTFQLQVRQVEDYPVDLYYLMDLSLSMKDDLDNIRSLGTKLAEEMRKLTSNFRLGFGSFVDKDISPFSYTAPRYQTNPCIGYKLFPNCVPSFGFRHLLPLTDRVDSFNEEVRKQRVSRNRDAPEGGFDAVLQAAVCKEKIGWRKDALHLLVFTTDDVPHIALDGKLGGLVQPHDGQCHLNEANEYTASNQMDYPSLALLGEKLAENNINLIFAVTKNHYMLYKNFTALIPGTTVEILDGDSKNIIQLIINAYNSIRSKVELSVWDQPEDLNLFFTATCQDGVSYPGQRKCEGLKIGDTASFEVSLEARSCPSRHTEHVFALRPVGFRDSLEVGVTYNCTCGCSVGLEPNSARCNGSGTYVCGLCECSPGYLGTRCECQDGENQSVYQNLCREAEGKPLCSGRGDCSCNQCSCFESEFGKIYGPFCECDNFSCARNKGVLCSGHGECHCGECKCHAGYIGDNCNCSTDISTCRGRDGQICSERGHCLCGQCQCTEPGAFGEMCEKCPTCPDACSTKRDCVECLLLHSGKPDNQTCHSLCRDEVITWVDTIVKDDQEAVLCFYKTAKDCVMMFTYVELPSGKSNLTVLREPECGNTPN

| Compound | potency toward αvβ5 (in words) (αvβ5) | IC50 (αvβ6) | progression-free survival [1] | tumor endocytosis of cytotoxic agents (tumor) | site of proteolytical cleavage [2] | effect on tumor migration and chemorepulsion (tumor migration) | internalization upon binding to NRP-1 (neuropilin-1 (NRP-1)) |
| --- | --- | --- | --- | --- | --- | --- | --- |
| N=C(N)NCCC[C@@H]1NC(=O)[C@@H](N)CSSC[C@@H](C(=O)O)NC(=O)[C@H](CC(=O)O)NC(=O)[C@@H]2CCCN2C(=O)CNC(=O)[C@H](CCCCN)NC(=O)[C@H](CC(=O)O)NC(=O)CNC1=O [1 (iRGD)] | mid-low nanomolar potency | 191 ± 44 nM | longer progression-free survival | enhanced by the simple coadministration | proteolytical cleavage at the Lys^5–Gly^6 bond | can inhibit tumor migration and induce chemorepulsion | – |
| CRGDK [CendR motif] | – | – | – | – | – | – | triggers the internalization of the peptide–receptor complex |
